The nature of data set [1]: Phase 1 crossover study, plasma pharmacokinetics of bendamustine, M3 and M4 (Example 23). As for the experimental part:
14 patients who were suffering from multiple myeloma, B-cell type chronic lymphocytic leukemia or advanced indolent non-Hodgkin's lymphoma were enrolled and were treated with bendamustine. […] After signing the informed consent form and following the screening period (days −21 to −2), eligible patients were assigned a patient number which was specific for each study site. Patients were randomized to receive one of the following on day 1 followed by the other on day 8: • a single oral dose of 110.2 mg (2×55.1 mg) bendamustine HCl • a single intravenous dose of 100 mg bendamustine HCl
Bendamustine was provided a) orally as capsules, a LFHC formulation (liquid-filled, hard-shell capsule) and b) intravenously as a solution after reconstituting a powder for the preparation of a solution for injection. The LFHC formulation (per capsule) was prepared from 55.1 mg bendamustine hydrochloride, 1.2 mg methylparaben, 0.12 mg […], 0.12 mg butylated hydroxytoluene, 10.9 mg ethanol and 532.56 mg Cremophor® RH40. The vial with powder for concentrate for solution was the marketed product in Germany (Ribomustine®) which contains per vial 100 mg of bendamustine hydrochloride and mannitol as an excipient. This product was reconstituted with water for injection to a final concentration of 2.5 mg/ml of bendamustine HCl and was further diluted with 0.9% NaCl until about 500 ml before administration to the patient, in accordance with the instructions of the package insert.
Patients were admitted to the study site for 2 periods; days −1 to 2 (period 1) and days 7 to 9 (period 2). A total of 12 patients was to be randomized to receive treatment. Six patients were to receive treatment with a single oral dose of 110.2 mg (2×55.1 mg) bendamustine HCl (day 1) followed by a single intravenous dose of 100 mg bendamustine HCl (day 8) while 6 other patients were to receive treatment in the alternate order. Patients underwent a washout period of at least 7 days between treatments.
After oral and intravenous administration of bendamustine the concentration of bendamustine, as well as that of the active metabolites of bendamustine (M3 and M4), were determined in plasma and urine samples on day 1 and day 8. Patients returned to the study site for an end-of-study visit 7 to 14 days after completion of the second treatment period, or after early discharge/withdrawal. Subsequently the pharmacokinetic parameters of bendamustine and its metabolites were calculated.

The nature of data set [2]: Phase 1 crossover study, urine pharmacokinetics of bendamustine, M3 and M4 (Example 23). The data set is classed as in vivo, patients. Particulars: for percentage of the dose excreted in urine as the metabolite: oral administration; for %Aeinf / %Aelast / CL renal: urine, Bendamustine HCl; for CL renal: human; for percentage of the dose excreted in urine unchanged: oral bendamustine.
Method: Bendamustine was provided a) orally as capsules, a LFHC formulation (liquid-filled, hard-shell capsule) and b) intravenously as a solution after reconstituting a powder for the preparation of a solution for injection. The LFHC formulation (per capsule) was prepared from 55.1 mg bendamustine hydrochloride, 1.2 mg methylparaben, 0.12 mg polyparaben, 0.12 mg butylated hydroxytoluene, 10.9 mg ethanol and 532.56 mg Cremophor® RH40. The vial with powder for concentrate for solution was the marketed product in Germany (Ribomustine®) which contains per vial 100 mg of bendamustine hydrochloride and mannitol as an excipient. This product was reconstituted with water for injection to a final concentration of 2.5 mg/ml of bendamustine HCl and was further diluted with 0.9% NaCl until about 500 ml before administration to the patient, in accordance with the instructions of the package insert.
After oral and intravenous administration of bendamustine the concentration of bendamustine, as well as that of the active metabolites of bendamustine (M3 and M4), were determined in plasma and urine samples on day 1 and day 8. […] Subsequently the pharmacokinetic parameters of bendamustine and its metabolites were calculated.

The conditions of data set [3]: cited from earlier work.
The conditions of data set [4]: a range of organic solvents; cited from earlier work.
Data set [5] is described as follows: Phase 1 crossover study, safety and tolerability (Example 23). The data set is classed as in vivo, patients. Conditions: oral and intravenous single doses.
Method: Bendamustine was provided a) orally as capsules, a LFHC formulation (liquid-filled, hard-shell capsule) and b) intravenously as a solution after reconstituting a powder for the preparation of a solution for injection. The LFHC formulation (per capsule) was prepared from 55.1 mg bendamustine hydrochloride, 1.2 mg methylparaben, 0.12 mg polyparaben, 0.12 mg butylated hydroxytoluene, 10.9 mg ethanol and 532.56 mg Cremophor® RH40. The vial with powder for concentrate for solution was the marketed product in Germany (Ribomustine®) which contains per vial 100 mg of bendamustine hydrochloride and mannitol as an excipient. […]
Data set [6] is described as follows: Stability of aqueous solution of bendamustine as a function of pH. It counts as physicochemical.

Counter-ions that a name gives are not always drawn.

For the molecule `Cn1c(C(O)CCC(=O)O)nc2cc(N(CCCl)CCCl)ccc21` (stereo not drawn) [Example M3, γ-hydroxybendamustine], the “Mean AUCinf of bendamustine, times higher than for the metabolite” value in data set [1] (oral administration) turned out to be 10.6 times. In data set [2], the “percentage of the dose excreted in urine as the metabolite” value was 0.6%. Further, the “%Aeinf” value in data set [2] (100 mg intravenously, Mean) is 0.459%; in data set [2] (100 mg intravenously, Median) it was 0.354%; in data set [2] (100 mg intravenously, Min-max), 0.018-1.6%; in data set [2] (110.2 mg orally, Mean), 0.611%; in data set [2] (110.2 mg orally, Median), 0.537%; in data set [2] (110.2 mg orally, Min-max) it was 0.13-1.5%. Also, the “%Aelast” value is reported as 0.457% in data set [2] (100 mg intravenously, Mean); 0.353% in data set [2] (100 mg intravenously, Median); 0.018-1.6% in data set [2] (100 mg intravenously, Min-max); 0.61% in data set [2] (110.2 mg orally, Mean); 0.553% in data set [2] (110.2 mg orally, Median); 0.12-1.6% in data set [2] (110.2 mg orally, Min-max).
With `O=C(O)CCCc1nc2cc(N(CCCl)CCCl)ccc2[nH]1` [Example M4, N-desmethylbendamustine], the “Mean AUCinf of bendamustine, times higher than for the metabolite” value in data set [1] (oral administration) turned out to be 88 times. In addition, the “percentage of the dose excreted in urine as the metabolite” value in data set [2] is listed as 0.1%. Moreover, the “%Aeinf” value is given as 0.081% in data set [2] (100 mg intravenously, Mean); 0.045% in data set [2] (100 mg intravenously, Median); 0.0039-0.17% in data set [2] (100 mg intravenously, Min-max); 0.109% in data set [2] (110.2 mg orally, Mean); 0.104% in data set [2] (110.2 mg orally, Median); 0.034-0.22% in data set [2] (110.2 mg orally, Min-max). For the same molecule, the “%Aelast” value in data set [2] (100 mg intravenously, Mean) is on record as 0.086%; in data set [2] (100 mg intravenously, Median), 0.043%; in data set [2] (100 mg intravenously, Min-max) it was 0.0028-0.21%; in data set [2] (110.2 mg orally, Mean), 0.113%; in data set [2] (110.2 mg orally, Median), 0.104%; in data set [2] (110.2 mg orally, Min-max), 0.019-0.21%.
A word on the AUC(0-inf): it is the area under the concentration-time curve extrapolated to infinity. Higher therefore signals more exposure. By AUC(0-t) is commonly meant the area under the concentration-time curve up to a stated or last time point. What is called Cmax is the highest concentration seen after dosing. As a reminder, the Vd is the apparent volume that relates the amount in the body to the concentration in plasma or blood. A high value points to wide distribution into tissue. The half-life is the time in which the quantity being followed falls by half. A lower half-life goes with rapid decline. Usually Tmax stands for the time at which the peak concentration occurs. By Vd/F is commonly meant the apparent distribution volume after extravascular dosing. In the case of `Cn1c(CCCC(=O)O)nc2cc(N(CCCl)CCCl)ccc21` [bendamustine hydrochloride], the AUC(0-inf) amounted to 4790 ng·h/mL in data set [1] (human, plasma, iv, 100 mg) and 3900 ng·h/mL in data set [1] (human, plasma, po, 110.2 mg). Also, the AUC(0-t) in data set [1] (human, plasma, iv, 100 mg) stood at 4780 ng·h/mL; in data set [1] (human, plasma, po, 110.2 mg), 3890 ng·h/mL. For the same molecule, the Cmax in data set [1] (human, plasma, iv, 100 mg) was determined as 5900 ng/mL; in data set [1] (human, plasma, po, 110.2 mg) it was 3170 ng/mL. The Vd in data set [1] (human, plasma, iv, 100 mg, Vss, plasma, Bendamustine HCl, 100 mg intravenously, Mean) was determined as 10.3 L; in data set [1] (human, plasma, iv, 100 mg, Vz, Bendamustine HCl, 100 mg intravenously, Mean) it was 14.7 L. For the same molecule, the half-life is 30.2 min in data set [1] (human, plasma, iv, 100 mg, t1/2, plasma, Bendamustine HCl, 100 mg intravenously, Mean) and 27.7 min in data set [1] (human, plasma, po, 110.2 mg, t1/2, plasma, Bendamustine HCl, 110.2 mg orally, Mean). In addition, the Tmax in data set [1] (human, plasma, iv, 100 mg, Bendamustine HCl, 100 mg intravenously, Mean) was determined as 31.4 min; in data set [1] (human, plasma, po, 110.2 mg, Bendamustine HCl, 110.2 mg orally, Mean) it was 56.8 min. Besides, the Vd/F in data set [1] (human, plasma, po, 110.2 mg) worked out at 20.2 L. For the same molecule, in data set [1] (plasma, Bendamustine HCl, 100 mg intravenously, Mean), the CL is 21.2 L/h. The CL renal was 6.42 mL/min in data set [2] (iv, 100 mg, 100 mg intravenously, Mean); 3.37 mL/min in data set [2] (iv, 100 mg, 100 mg intravenously, Median); 1 to 23.3 mL/min in data set [2] (iv, 100 mg, 100 mg intravenously, Min-max); 13.1 mL/min in data set [2] (po, 110.2 mg, 110.2 mg orally, Mean); 13 mL/min in data set [2] (po, 110.2 mg, 110.2 mg orally, Median); 3 to 33.3 mL/min in data set [2] (po, 110.2 mg, 110.2 mg orally, Min-max). Also, the “%Aeinf” value in data set [2] (100 mg intravenously, Mean) is 2.07%; in data set [2] (100 mg intravenously, Median) it was 1.22%; in data set [2] (100 mg intravenously, Min-max), 0.27-8.8%; in data set [2] (110.2 mg orally, Mean), 2.64%; in data set [2] (110.2 mg orally, Median), 2.23%; in data set [2] (110.2 mg orally, Min-max), 0.40-5.8%. Further, the “%Aelast” value was 2.07% in data set [2] (100 mg intravenously, Mean); 1.23% in data set [2] (100 mg intravenously, Median); 0.27-8.8% in data set [2] (100 mg intravenously, Min-max); 2.66% in data set [2] (110.2 mg orally, Mean); 2.23% in data set [2] (110.2 mg orally, Median); 0.40-5.9% in data set [2] (110.2 mg orally, Min-max). Besides, the “time at which maximal plasma levels were detectable” value in data set [3] (oral capsules, 250-350 mg, 7 patients (Preiss 1985)) was not above 1 h. Further, the “oral bioavailability, inter-individual range” value in data set [3] (similar study, Preiss et al. 1989) is reported as 25-121%. The “solubility in organic solvents” value in data set [4] is recorded as “slightly or very slightly soluble”.
Broadly, the clearance is a measure of how efficiently the substance is removed, as volume per time. Read a high clearance as a high capacity for elimination. `Cn1c(CCCC(=O)O)nc2cc(N(CCCl)CCCl)ccc21` [bendamustine, 4-[5-[bis(2-chloroethyl)amino]-1-methylbenzimidazo-2-yl]butanoic acid] showed a clearance in data set [1] (human, plasma, iv, 100 mg) of 353 mL/min. For the same molecule, the Vd is 10.3 L in data set [1] (human, plasma, iv, 100 mg, Mean VSS, intravenous administration) and 14.7 L in data set [1] (human, plasma, iv, 100 mg, Mean VZ, intravenous administration). In addition, the half-life is approximately 30 min in data set [1] (human, plasma, iv, 100 mg, Mean t1/2, intravenous administration) and approximately 30 min in data set [1] (human, plasma, po, 110.2 mg, Mean t1/2, oral intake). Further, the Tmax in data set [1] (human, plasma, po, 110.2 mg, individual values, oral administration) is 15 to 108 min; in data set [1] (human, plasma, po, 110.2 mg, oral administration), approximately 57 min. The results for the “percentage of the dose excreted in urine unchanged” value in data set [2] and in data set [2] (listed as Bendamustine) were 2.6% and “Approximately 2.6%”, respectively. Besides, in data set [5], the “deaths during the study” value was “No deaths”. Further, the “pH values at which significant hydrolytic decomposition is observed” value in data set [6] is reported as “higher than 5”. Besides, the “oral bioavailability, range” value in data set [3] (oral capsules, 250-350 mg, patients (Preiss 1985)) was 25-94%.

The record behind these values is US10485787B2, “Oral dosage forms of bendamustine and therapeutic use thereof” (ASTELLAS DEUTSCHLAND GMBH, priority 2010, dated 2019).
